Results taken from patent US20140088069A1, “NOVEL ANTIBACTERIAL COMBINATION THERAPY” (priority 2011, published 2014).

Experiments:
Type in all cases: cell-based, Staphylococcus aureus
MRSA = experiment: Analogues in combination with cefuroxime against MRSA (FIC index)
Method: A series of analogues were synthesized (as shown in Table 5) in which the thienopyridine ring was removed.
These were tested in combination with cefuroxime against MRSA and results are shown below (Table 6).

CA-MRSA USA300 = experiment: Checkerboard (FIC) analysis against CA-MRSA USA300
Method: Here a matrix of drug concentrations were tested in combinations at the concentrations shown (μg/mL). Greyscale indicates growth—darker is more growth, lighter is less growth. FIC index is a measure of synergy and is calculated as follows: FIC index=FIC (cefuroxime)+FIC (drug compound).
The combination of ticlopidine and cefuroxime was further tested as above against a variety of S. aureus strains as shown in Table 1 below.
FIC index=FIC (β-lactam)+FTC (ticlopidine). […]

[1] = tested on: S. aureus (Newman strain); experiment: Checkerboard (FIC) analysis against S. aureus Newman; conditions: antibiotic in combination with ticlopidine; S. aureus (Newman strain)
[2] = compound in combination with cefuroxime, MRSA (Table 5)
[3] = antibiotic in combination with ticlopidine, CA-MRSA USA 300, FIC (β-lactam)+FIC (ticlopidine)
[4] = novel analogue in combination with cefuroxime, MRSA (Table 6)

Row | Structure (SMILES) | FIC index (MRSA; [2]) | FIC index [1] | further results
1 | O=C(O)C(c1ccccc1C(F)(F)F)N1CCc2ccccc2C1 (centres unmarked) [Compound 23] | ≦2 |  | 
2 | Clc1ccccc1C[n+]1ccc2ccccc2c1 [Compound 8, 2-(2-Chloro-benzyl)-isoquinolinium] | ≦2 |  | 
3 | CC1(C)S[C@@H]2[C@H](NC(=O)[C@H](N)c3ccccc3)C(=O)N2[C@H]1C(=O)O [Ampicillin] |  | ≦1 | FIC index (CA-MRSA USA300; [3]): ≦0.5
4 | Cn1nnnc1SCC1=C(C(=O)O)N2C(=O)[C@@H](NC(=O)[C@H](O)c3ccccc3)[C@H]2SC1 [Cefamandole] |  | ≦0.75 | FIC index (CA-MRSA USA300; [3]): ≦0.63
5 | Clc1ccc(CN2CCc3ccccc3C2)cc1 [Compound 5, 2-(4-Chloro-benzyl)-1,2,3,4-tetrahydro-isoquinoline] | ≦2 |  | 
6 | CC(C)(O/N=C(\C(=O)N[C@@H]1C(=O)N2C(C(=O)[O-])=C(C[n+]3ccccc3)CS[C@H]12)c1csc(N)n1)C(=O)O [Ceftazidime] |  | ≦1 | FIC index (CA-MRSA USA300; [3]): ≦2
7 | c1cc2c(s1)CCNC2 [Compound 2, 4,5,6,7-Tetrahydro-thieno[3,2-c]pyridine] | ≦2 |  | 
8 | Oc1ccc2c(c1)CN(Cc1ccccc1Cl)CC2 [Compound 2-novel, 2-(2-Chloro-benzyl)-1,2,3,4-tetrahydro-isoquinolin-7-ol] |  |  | FIC index (MRSA; [4]): ≦2
9 | CO[C@@]1(NC(=O)Cc2cccs2)C(=O)N2C(C(=O)O)=C(COC(N)=O)CS[C@@H]21 [Cefoxitin] |  | ≦0.75 | FIC index (CA-MRSA USA300; [3]): ≦0.5
10 | Cc1onc(-c2ccccc2)c1C(=O)N[C@@H]1C(=O)N2[C@@H]1SC(C)(C)[C@@H]2C(=O)O [Oxacillin] |  | ≦0.63 | FIC index (CA-MRSA USA300; [3]): ≦0.5
11 | O=C(O)C(c1ccccc1Cl)N1CCc2ccccc2C1 (centres unmarked) [Compound 4-novel, (2-Chloro-phenyl)-(3,4-dihydro-1H-isoquinolin-2-yl)-acetic acid] |  |  | FIC index (MRSA; [4]): ≦2
12 | Clc1ccccc1CN1CCc2ccccc2C1 [Compound 3, 2-(2-Chloro-benzyl)-1,2,3,4-tetrahydro-isoquinoline] | ≦0.125 |  | 
13 | N[C@@H](C(=O)N[C@@H]1C(=O)N2C(C(=O)O)=C(Cl)CS[C@H]12)c1ccccc1 [Cefaclor] |  | ≦1 | FIC index (CA-MRSA USA300; [3]): ≦0.5
14 | Clc1ccc2c(c1)CCN(Cc1ccccc1Cl)C2 [Compound 1-novel, 6-Chloro-2-(2-chloro-benzyl)-1,2,3,4-tetrahydro-isoquinoline] |  |  | FIC index (MRSA; [4]): ≦2
15 | COC(=O)C(c1ccccc1Cl)N1CCc2ccccc2C1 (centres unmarked) [Compound 18, (2-Chloro-phenyl)-(3,4-dihydro-1H-isoquinolin-2-yl)-acetic acid methyl ester] | ≦0.187 |  | 
16 | Clc1ccccc1CN1CCCCC1 [Compound 12, 1-(2-Chloro-benzyl)-piperidine] | ≦2 |  | 
17 | O=[N+]([O-])c1ccccc1CN1CCc2ccccc2C1 [Compound 16, 2-(2-Nitro-benzyl)-1,2,3,4-tetrahydro-isoquinoline] | ≦0.187 |  | 
18 | CC1=C(C(=O)O)N2C(=O)[C@@H](NC(=O)[C@H](N)c3ccccc3)[C@H]2SC1 [Cephalexin] |  | ≦1 | FIC index (CA-MRSA USA300; [3]): ≦0.75
19 | Cc1ccccc1CN1CCc2ccccc2C1 [Compound 14, 2-(2-Methyl-benzyl)-1,2,3,4-tetrahydro-isoquinoline] | ≦0.125 |  | 
20 | Clc1ccccc1CN1CCCc2ccccc21 [Compound 9, 1-(2-Chloro-benzyl)-1,2,3,4-tetrahydro-quinoline] | ≦0.187 |  | 
21 | COc1cccc(OC)c1C(=O)N[C@@H]1C(=O)N2[C@@H]1SC(C)(C)[C@@H]2C(=O)O [Methicillin] |  | ≦1 | FIC index (CA-MRSA USA300; [3]): ≦0.63

Row | Structure (SMILES) | FIC index (MRSA; [2]) | FIC index [1] | further results
22 | c1ccc(CN2CCc3ccccc3C2)cc1 [Compound 6, 2-Benzyl-1,2,3,4-tetrahydro-isoquinoline] | ≦0.625 |  | 
23 | COC(=O)C(c1ccccc1C(F)(F)F)N1CCc2ccccc2C1 (centres unmarked) [Compound 21] | ≦0.125 |  | 
24 | c1ccc2c(c1)CCN(Cc1ccc3ccccc3c1)C2 [Compound 3-novel, 2-Naphthalen-2-ylmethyl-1,2,3,4-tetrahydro-isoquinoline] |  |  | FIC index (MRSA; [4]): ≦0.312
25 | Clc1cccc(CN2CCc3ccccc3C2)c1 [Compound 4, 2-(3-Chloro-benzyl)-1,2,3,4-tetrahydro-isoquinoline] | ≦2 |  | 
26 | Clc1ccccc1CN1CCCC1 [Compound 11, 1-(2-Chloro-benzyl)-pyrrolidine] | ≦2 |  | 
27 | FC(F)(F)c1ccccc1CN1CCc2ccccc2C1 [Compound 17, 2-(2-Trifluoromethyl-benzyl)-1,2,3,4-tetrahydro-isoquinoline] | ≦0.094 |  | 
28 | CN[C@H](CC(C)C)C(=O)N[C@H]1C(=O)N[C@@H](CC(N)=O)C(=O)N[C@H]2C(=O)N[C@H]3C(=O)N[C@H](C(=O)N[C@H](C(=O)O)c4cc(O)cc(O)c4-c4cc3ccc4O)[C@H](O)c3ccc(c(Cl)c3)Oc3cc2cc(c3O[C@@H]2O[C@H](CO)[C@@H](O)[C@H](O)[C@H]2O[C@H]2C[C@](C)(N)[C@H](O)[C@H](C)O2)Oc2ccc(cc2Cl)[C@H]1O [Vancomycin] |  | ≦2 | 
29 | CCN1CCN(Cc2ccccc2Cl)CC1 [Compound 10, 1-(2-Chloro-benzyl)-4-ethyl-piperazine] | ≦2 |  | 
30 | Clc1ccccc1CN1CCC2CCCCC2C1 (centres unmarked) [Compound 13, 2-(2-Chloro-benzyl)-decahydro-isoquinoline] | ≦2 |  | 
31 | CO[C@@]1(NC(=O)CSCC#N)C(=O)N2C(C(=O)O)=C(CSc3nnnn3C)CS[C@@H]21 [Cefmetazole] |  | ≦0.75 | 
32 | c1ccc2c(c1)CCN(Cc1ccncc1)C2 [Compound 7, 2-Pyridin-4-ylmethyl-1,2,3,4-tetrahydro-isoquinoline] | ≦2 |  | 
33 | Fc1ccccc1CN1CCc2ccccc2C1 [Compound 15, 2-(2-Fluoro-benzyl)-1,2,3,4-tetrahydro-isoquinoline] | ≦0.187 |  | 
34 | COC(=O)[C@H](c1ccccc1Cl)N1CCc2sccc2C1 [Compound 19, (+)-(S)-methyl 2-(2-chlorophenyl)-2-(6,7-dihydrothieno[3,2-c]pyridin-5(4H)-yl)acetate] | ≦0.187 |  | MIC (CA-MRSA USA300; Staphylococcus aureus, thienopyridine alone, CA-MRSA USA300 (Table 4), read-out: MIC thienopyridine): > 128 µg/mL; FIC thienopyridine (CA-MRSA USA300; in the presence of cefuroxime, CA-MRSA USA300 (Table 4)): 0.13; FIC index (CA-MRSA USA300; thienopyridine in combination with cefuroxime, CA-MRSA USA300 (Table 4), listed as Clopidogrel): ≦0.20; FIC index (CA-MRSA USA300; thienopyridine in combination with cefuroxime, CA-MRSA USA300 (Table 4), listed as clopidogrel): ≤ 0.20
35 | CO/N=C(\C(=O)N[C@@H]1C(=O)N2C(C(=O)O)=C(COC(C)=O)CS[C@H]12)c1csc(N)n1 [Ceftoxamine] |  | ≦1 | 
36 | NC(=O)c1cc[n+](CC2=C(C(=O)O)N3C(=O)[C@@H](NC(=O)[C@@H](c4ccccc4)S(=O)(=O)[O-])[C@H]3SC2)cc1 [Cefsulodin] |  | ≦1 | FIC index (CA-MRSA USA300; [3]): ≦2
37 | CCN1CCN(C(=O)N[C@@H](C(=O)N[C@@H]2C(=O)N3[C@@H]2SC(C)(C)[C@@H]3C(=O)O)c2ccccc2)C(=O)C1=O [Piperacillin] |  | ≦0.63 | FIC index (CA-MRSA USA300; [3]): ≦0.5
38 | O=C(O)c1cn(C2CC2)c2cc(N3CCNCC3)c(F)cc2c1=O [Ciprofloxacin] |  | ≦2 | 
39 | CCOc1ccc2ccccc2c1C(=O)N[C@@H]1C(=O)N2[C@@H]1SC(C)(C)[C@@H]2C(=O)O [Nafcillin] |  | ≦1 | FIC index (CA-MRSA USA300; [3]): ≦0.5
40 | NC(=O)C(c1ccccc1C(F)(F)F)N1CCc2ccccc2C1 (centres unmarked) [Compound 22] | ≦1 |  | 
41 | O=C(O)C(c1ccccc1Cl)N1CCc2sccc2C1 (centres unmarked) [Compound 20] | ≦0.75 |  | 
